IC50 data for 26 molecules are collected here from patent publication US10800757B2, “Inhibitors of TRPC6” (Boehringer Ingelheim International GmbH, priority 2017, dated 2020).

Bounds are passed on as bounds.

TRPC6, sequence (Q9Y210 whole entry, species assumed): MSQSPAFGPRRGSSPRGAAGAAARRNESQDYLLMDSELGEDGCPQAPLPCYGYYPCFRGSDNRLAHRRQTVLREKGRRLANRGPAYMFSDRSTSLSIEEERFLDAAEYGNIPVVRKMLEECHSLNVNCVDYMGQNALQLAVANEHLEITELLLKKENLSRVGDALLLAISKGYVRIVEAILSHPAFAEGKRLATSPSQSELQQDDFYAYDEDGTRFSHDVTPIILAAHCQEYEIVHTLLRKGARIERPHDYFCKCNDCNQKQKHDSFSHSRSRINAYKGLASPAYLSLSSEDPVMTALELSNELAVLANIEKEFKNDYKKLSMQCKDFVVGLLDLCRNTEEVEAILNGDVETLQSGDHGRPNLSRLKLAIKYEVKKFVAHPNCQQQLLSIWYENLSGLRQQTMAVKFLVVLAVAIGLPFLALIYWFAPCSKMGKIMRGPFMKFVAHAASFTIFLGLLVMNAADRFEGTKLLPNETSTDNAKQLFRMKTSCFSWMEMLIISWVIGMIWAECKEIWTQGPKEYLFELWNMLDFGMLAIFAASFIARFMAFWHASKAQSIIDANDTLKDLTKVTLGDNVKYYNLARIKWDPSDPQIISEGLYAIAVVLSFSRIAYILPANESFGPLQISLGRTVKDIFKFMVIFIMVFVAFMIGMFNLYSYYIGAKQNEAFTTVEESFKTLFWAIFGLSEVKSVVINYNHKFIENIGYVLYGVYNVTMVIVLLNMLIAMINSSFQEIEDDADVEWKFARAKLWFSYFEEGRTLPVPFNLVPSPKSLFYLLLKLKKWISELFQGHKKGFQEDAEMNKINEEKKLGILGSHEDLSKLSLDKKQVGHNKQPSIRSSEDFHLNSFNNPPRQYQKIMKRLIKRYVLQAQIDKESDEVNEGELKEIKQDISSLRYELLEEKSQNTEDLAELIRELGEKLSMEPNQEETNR

The assay addresses TRPC6 (Homo sapiens (Human), UniProt Q9Y210). Briefly: High throughput screening assay: fluorescent calcium (Fluo4/AM) assay of TRPC6 channel activation by GSK1702934A in HEK293/TREx cells. The class given is cell-based. As to conditions: HEK293/TREx cells stably transfected with TRPC6; agonist GSK1702934A; 7 concentrations 20 μM to 0.027 μM, triplicate. An excerpt: This screening assay measures TRPC6 (transient receptor potential cation channel, subfamily C, member 6) ion channel activation via addition either of the commercially available DAG ligand analogue OAG (1-oleoyl-2-acetyl-sn-glycerol) or of the TRPC6 agonist 1-[1-(4,5,6,7,8-pentahydrocyclohepta[2,1-d]thiophen-2-ylcarbonyl)-4-piperidyl]-3-hydrobenzimidazol-2-one (GSK1702934A). The assay utilizes a FLIPR fluorescent calcium sensor 4-(6-Acetoxymethoxy-2,7-difluoro-3-oxo-9-xanthenyl)-4′-methyl-2,2′-(ethylenedioxy)dianiline-N,N,N′,N′-tetraacetic acid tetrakis(acetoxymethyl) ester (Fluo4/AM) […]. Changes (increases) in intracellular membrane calcium concentration potential as measured by the fluorescent signal increase during membrane depolarization provide a measurement of channel activity.
The commercially available HEK293/TREx line (Invitrogen) was stably transfected with a TRPC6 construct and screened by conventional calcium imaging to find clones with TRPC6 expression following stimulation with 1 μg/ml tetracycline. These cells were maintained in the growth medium recommended by the manufacturer supplemented with 100 μg/ml hygromycin to promote retention of the TRPC6 construct. After growing to near confluency, cells were plated at a density of ^˜35,000 cells/well in 384 well CellBind plates (Corning) in the presence of 1 μg/ml tetracycline, and allowed to grow for 20-30 hrs. A nearly confluent monolayer resulted. Growth media was removed from the wells and cells were then loaded with […] Fluo4/AM diluted in Ringer's Solution (6.5 g NaCl, 0.42 g KCl, 0.25 g CaCl2) and 0.2 g of sodium bicarbonate; pH 7.4) supplemented with 1% Pluronic F-127 to a final concentration of 0.5 μM and incubated for 60 min, at room temperature. Dye solution was then removed from the cells by inverting plates with a sharp flick, and replaced with 25 μl Ringer's. Following ^˜0.5 hour for recovery from loading, cells were assayed using the Hamamatsu FDSS 6000 system, which permitted illumination at 485 nm. Frames were acquired at a rate of 0.2 Hz. During the assay, the plates were continuously vortexed, with pipette mixing of wells following addition of each reagent. For the screening assay, 26 μl of a diluted compound stock (at 50 μM) was added to each well for 2 minutes following the collection of a short (4 frame) baseline. 13 μl of agonist solution consisting of 125 nM GSK1702934A diluted in high-Ca2+Ringer solution (containing 90 mm Ca2+) was then added to each well, achieving a final concentration of 20 mm Ca2+ and 10 μM test compound. Data was collected for ^˜3 minutes following addition of high Ca2+Ringer. The fluorescent ratio for each well was divided by the initial fluorescent intensity for that well and the overall response was determined by averaging the fluorescent ratio of the last 4 frames acquired during the experiment excepting the final frame. Negative and Positive controls were included on each plate. Negative controls wells consisted of HEK293/TREx TRPC6 cells exposed to assay buffer and agonist solution, but no test compound. Positive control consisted of wells consisted of HEK293/TREx TRPC6 cells exposed to 25 μM 3-[(2-chlorophenoxy)methyl]phenyl piperidyl ketone (Chembridge) diluted in Ringer's solution and agonist solution. These controls defined zero percent and 100 percent block respectively, and intensity of each well was normalized to these values.
Compounds were tested in triplicate at all concentrations. Standard software was used to fit IC50 curves.
For the molecule `COc1cc(C(=O)N2CCC(c3cnc(N)cc3OC)CC2)ncc1Oc1ccccc1` [Compound 23, (6-Amino-4-methoxy-3′,4′,5′,6′-tetrahydro-2′H-[3,4′]bipyridinyl-1′-yl)-(4-methoxy-5-phenoxy-pyridin-2-yl)-methanone], the half-maximal inhibitory concentration (IC50) stood at 54 nM. With `COc1cc(C(=O)N2CCC(c3nnc(N)cc3C)CC2)ncc1Oc1ccc(F)cc1` [Compound 29, 6-{-[5-(4-Fluorophenoxy)-4-methoxypyridine-2-carbonyl]piperidin-4-yl}-5-methylpyridazin-3-amine trifluoroacetic acid], the concentration for half-maximal inhibition (IC50) came to 110 nM. Under `CCOc1cc(C(=O)N2CCC(c3ccc(N)nn3)CC2)ncc1Oc1ccccc1` [Compound 83, [4-(6-Amino-pyridazin-3-yl)-piperidin-1-yl]-[5-(phenoxy)-4-ethoxy-pyridin-2-yl]-methanone] stands 98 nM; under `CCOc1cc(N)nnc1C1CCN(C(=O)c2cc(OC)c(Oc3ccc(C(F)(F)F)cc3)cn2)CC1` [Compound 87], 620 nM. For `COc1ccc(Oc2cnc(C(=O)N3CCN(c4ccc(N)nc4)CC3)cc2OC)cc1` [Compound 12, [4-(6-Amino-pyridin-3-yl)-piperazin-1-yl]-[4-methoxy-5-(4-methoxy-phenoxy)-pyridin-2-yl]-methanone], the concentration for half-maximal inhibition (IC50) was 27 nM. Regarding `COc1cc(C(=O)N2CCN(c3cnc(N)cc3C)C[C@@H]2CO)ncc1Oc1ccc(F)cc1` [Compound 7, [(R)-4-(6-Amino-4-methyl-pyridin-3-yl)-2-hydroxymethyl-piperazin-1-yl]-[5-(4-fluoro-phenoxy)-4-methoxy-pyridin-2-yl]-methanone], the concentration for half-maximal inhibition (IC50) is 27 nM. Under `COc1cc(C(=O)N2CCC(c3cnc(N)cc3OC)CC2)ncc1Oc1ccc(F)cc1` [Compound 4, (6-Amino-4-methoxy-3′,4′,5′,6′-tetrahydro-2′H-[3,4′]bipyridinyl-1′-yl)-[5-(4-fluoro-phenoxy)-4-methoxy-pyridin-2-yl]methanone] stands below 27 nM; under `COc1cc(C(=O)N2CCC(c3nnc(N)cc3C)CC2)ncc1Oc1ccccc1` [Compound 31, 6-[1-(4-Methoxy-5-phenoxypyridine-2-carbonyl)piperidin-4-yl]-5-methylpyridazin-3-amine trifluoroacetic acid], 120 nM. With `COc1cc(C(=O)N2CCC(c3cnc(N)cc3OC)CC2)ncc1OCCc1ccccc1` [Compound 52, (6-Amino-4-methoxy-3′,4′,5′,6′-tetrahydro-2′H-[3,4′]bipyridinyl-1′-yl)-(4-methoxy-5-phenethyloxy-pyridin-2-yl)-methanone], the 50% inhibitory concentration (IC50) amounted to 190 nM. The value for `COc1cc(C(=O)N2CCN(c3cnc(N)cc3OC)CC2)ncc1OCC1CC1` [Compound 61, [4-(6-Amino-4-methoxy-pyridin-3-yl)-piperazin-1-yl]-(5-cyclopropylmethoxy-4-methoxy-pyridin-2-yl)-methanone] was 500 nM. On to `COc1cc(C(=O)N2CCC(c3ccc(N)nn3)CC2)ncc1OCC(C)C` [Compound 36, [4-(6-Amino-pyridazin-3-yl)-piperidin-1-yl]-(5-isobutoxy-4-methoxy-pyridin-2-yl)-methanone], for which the 50% inhibitory concentration (IC50) was found to be 97 nM. The value for `COC[C@H]1CN(c2cnc(N)cc2OC)CCN1C(=O)c1cc(OC)c(Oc2ccc(F)cc2)cn1` [Compound 55, [(R)-4-(6-Amino-4-methoxy-pyridin-3-yl)-2-methoxymethyl-piperazin-1-yl]-[5-(4-fluoro-phenoxy)-4-methoxy-pyridin-2-yl]-methanone] was 220 nM. The value for `COc1cc(C(=O)N2CCC(c3ccc(N)nn3)CC2)ncc1Oc1ccccc1` [Compound 16, [4-(6-Amino-pyridazin-3-yl)-piperidin-1-yl]-(4-methoxy-5-phenoxy-pyridin-2-yl)-methanone] was 27 nM; that for `COc1cc(C(=O)N2CCC(c3cc(OC)c(N)nn3)CC2)ncc1Oc1ccccc1` [Compound 21, [4-(6-Amino-5-methoxy-pyridazin-3-yl)-piperidin-1-yl]-(4-methoxy-5-phenoxy-pyridin-2-yl)-methanone] was 43 nM.

In the case of `COc1cc(N)nnc1C1CCN(C(=O)c2ccc(Oc3ccc(C(F)(F)F)cc3)cn2)CC1` [Compound 91, 5-Methoxy-6-(1-{5-[4-(trifluoromethyl)phenoxy]pyridine-2-carbonyl}piperidin-4-yl)pyridazin-3-amine trifluoroacetic acid], the IC50 amounted to 414 nM. As to `COc1cc(C(=O)N2CCN(c3cnc(N)cc3OC)CC23CC3)ncc1Oc1ccc(F)cc1` [Compound 9, [7-(6-Amino-4-methoxy-pyridin-3-yl)-4,7-diaza-spiro[2.5]oct-4-yl]-[5-(4-fluoro-phenoxy)-4-methoxy-pyridin-2-yl]-methanone], the IC50 was found to be 27 nM.

Turning to `COc1ccc(Oc2cnc(C(=O)N3CCC(c4cc(OC)c(N)nn4)CC3)cc2OC)cc1` [Compound 60, [4-(6-Amino-5-methoxy-pyridazin-3-yl)-piperidin-1-yl]-[4-methoxy-5-(4-methoxy-phenoxy)-pyridin-2-yl]-methanone], the IC50 is 440 nM. The value for `COc1cc(C(=O)N2CCC(c3ccc(N)nc3)CC2)ncc1Oc1ccccc1` [Compound 3, (6-Amino-3′,4′,5′,6′-tetrahydro-2′H-[3,4′]bipyridinyl-1′-yl)-(4-methoxy-5-phenoxy-pyridin-2-yl)-methanone] was below 27 nM; that for `COc1cc(C(=O)N2CCN(c3ccc(N)nc3)CC2)ncc1Oc1ccc(F)cc1` [Compound 13, [4-(6-Amino-pyridin-3-yl)-piperazin-1-yl]-[5-(4-fluoro-phenoxy)-4-methoxy-pyridin-2-yl]-methanone] was 27 nM. The value for `COc1cc(C(=O)N2CCC(c3cnc(N)cc3OC)CC2)ncc1OC(C)C` [Compound 72, (6-Amino-4-methoxy-3′,4′,5′,6′-tetrahydro-2′H-[3,4′]bipyridinyl-1′-yl)-(5-isopropoxy-4-methoxy-pyridin-2-yl)-methanone] was 910 nM; that for `COc1cc(C(=O)N2CCC(c3cnc(N)cc3OC)CC2)ncc1OCC1(C)CC1` [Compound 26, (6-Amino-4-methoxy-3′,4′,5′,6′-tetrahydro-2′H-[3,4′]bipyridinyl-1′-yl)-[4-methoxy-5-(1-methyl-cyclopropylmethoxy)-pyridin-2-yl]-methanone] was 71 nM. As for `COc1cc(C(=O)N2CCC(c3cnc(N)cc3OC)CC2)ncc1OCC1CC1` [Compound 37, 5-{1-[5-(Cyclopropylmethoxy)-4-methoxypyridine-2-carbonyl]piperidin-4-yl}-4-methoxypyridin-2-amine], the concentration for half-maximal inhibition (IC50) is 160 nM. Under `COc1cc(C(=O)N2CCC(c3cnc(N)cc3OC)CC2)ncc1OCc1ccccc1` [Compound 43, (6-Amino-4-methoxy-3′,4′,5′,6′-tetrahydro-2′H-[3,4′]bipyridinyl-1′-yl)-(5-benzyloxy-4-methoxy-pyridin-2-yl)-methanone] stands 140 nM. Under `COc1cc(C(=O)N2CCC(c3cnc(N)cc3OC)CC2)ncc1OCC(C)C(F)(F)F` (single isomer, unassigned) [Compound 94b, 4-Methoxy-5-(1-{4-methoxy-5-[3,3,3-trifluoro-2-methylpropoxy]pyridine-2-carbonyl}piperidin-4-yl)-pyridin-2-amine] stands 351 nM; under `COc1cc(C(=O)N2CCC(c3ccc(N)nn3)CC2)ncc1OCc1ccccc1F` [Compound 57, [4-(6-Amino-pyridazin-3-yl)-piperidin-1-yl]-[5-(2-fluoro-benzyloxy)-4-methoxy-pyridin-2-yl]-methanone], 300 nM; under `COc1cc(C(=O)N2CCN(c3ccc(N)nc3)CC2)ncc1Oc1ccccc1` [Compound 15, [4-(6-Amino-pyridin-3-yl)-piperazin-1-yl]-(4-methoxy-5-phenoxy-pyridin-2-yl)-methanone], 27 nM.

Broadly, the IC50 is the concentration that inhibits the measured activity by half.
